Results on three molecules are retold here after PMC12386811, “Novel Carbazole–Thiazole Conjugates: Synthesis and Biophysical Characterization” (International Journal of Molecular Sciences, 2025).

Each structure is given as a SMILES string.

One series concerns the target mushroom tyrosinase (Agaricus bisporus, UniProt C7FF04). Briefly: Kinetic analysis of the inhibition of tyrosinase (Lineweaver–Burk plots). It counts as biochemical. The settings on record: inhibitor 0.05 and 0.1 mM, L-DOPA 0.1–0.25 mM. On the procedure:
Based on the Lineweaver–Burk double reciprocal plots, the inhibition mode for the three investigated compounds was established as mixed-type inhibition, i.e., the type of enzyme inhibition in which the inhibitor may bind to the enzyme regardless of whether or not the enzyme has already bound the substrate. […].
A series of experiments were performed to determine the inhibition kinetics of tested carbazoles by following the already reported method. The inhibitor concentrations for tested carbazoles were 0.05 and 0.1 mM. Substrate L-DOPA concentration was between 0.1 and 0.25 mM in all kinetic studies. Maximal initial velocity was determined from the initial linear portion of absorbance up to ten minutes after addition of enzyme. The inhibition type of the enzyme, Michaelis constant (Km) and maximal velicity (Vmax), were determined by Lineweaver–Burk plots of inverse of velocities (1/V) versus inverse of substrate concentration 1/[L-DOPA] mM^−1.

Series [1] can be described thus: Thermogravimetric analysis (thermal stability). It counts as physicochemical. To be noted: TGA, 15 °C/min under nitrogen. The method, then: Thermogravimetric analysis (TGA) allowed obtaining of thermal stability results for the presented compounds (K1–K3). For all derivatives, the temperature of 5% (T5) and 10% (T10) mass loss as well as the temperature of complete decomposition (Tmax) were determined. Referring to the T5 for K1–K3, we can see that it is in the range of 222 °C to 244 °C. Such high values indicate the high durability of these compounds. Moreover, the functional group in the substituent has a negligible effect on thermal stability. The best thermal properties are those of K3 compound, containing the 4-nitrophenyl group. In the case of replacing this group with benzonitrile (K2), we observe a slight decrease in T5 (by 13 °C), T10 (by 19 °C), and only one stage of Tmax degradation. On the other hand, compound K1 has the lowest T5 (222 °C). It is most likely due to the aliphatic nature of the substituent. Comparing the discussed derivatives (K1–K3) to their analogs described in the literature, we can see a significant similarity in thermal properties, despite different functional groups in the substituents.
Thermogravimetric analysis was performed on Perkin Elmer Thermogravimetric Analyzer Pyris 1 TGA at a heating rate of 15 °C/min under nitrogen. The electronic spectra were measured on a ThermoScientific Evolution 220 UV/Vis spectrometer. Photoluminescence emission spectra were acquired using Hitachi Fluorescence Spectrophotometer F-7100 [19].

Series [2] is described as follows: Dissolution in solvents for absorption/emission studies. It counts as physicochemical. To be noted: non-polar toluene. On the procedure:
Absorption and emission studies were carried out for investigated compounds K1–K3 using solvents of different polarities. The presented molecules differ in the substituent in thiazole ring. To check the influence of the substituent in the discussed molecules, the tests were carried out on solutions with a concentration of 2.5 × 10^−5 mol/L. In the first step, absorption maxima (λabs) were determined. The measured data are shown in Table 3, Figure 3, Figures S1 and S2.
Each of the derivatives has at least two bands registered in the absorption spectra. The main bands between 320 and 370 nm can be attributed to the π→π* transition. The next one is the band […] 300 nm. In the case of the presented molecules, the solvatochromic effect associated with the polarity of the solvent is not observed in the absorption spectra. The same behavior is shown by the analogs described in the literature. In the next step, the emission maxima were determined. For the K3 molecule, spectra were recorded only in chloroform, ethanol, and DMSO. […] For the rest, λem was successfully determined in several solvents. By analyzing the fluorescence spectra, the influence of the polarity of the solvent on the obtained results can be observed. […] Moreover, the Stokes shift increases from non-polar to polar solvents (K3 30 nm, K1 69 nm, K2 70 nm). […]

Sequence of mushroom tyrosinase (C7FF04 1-392): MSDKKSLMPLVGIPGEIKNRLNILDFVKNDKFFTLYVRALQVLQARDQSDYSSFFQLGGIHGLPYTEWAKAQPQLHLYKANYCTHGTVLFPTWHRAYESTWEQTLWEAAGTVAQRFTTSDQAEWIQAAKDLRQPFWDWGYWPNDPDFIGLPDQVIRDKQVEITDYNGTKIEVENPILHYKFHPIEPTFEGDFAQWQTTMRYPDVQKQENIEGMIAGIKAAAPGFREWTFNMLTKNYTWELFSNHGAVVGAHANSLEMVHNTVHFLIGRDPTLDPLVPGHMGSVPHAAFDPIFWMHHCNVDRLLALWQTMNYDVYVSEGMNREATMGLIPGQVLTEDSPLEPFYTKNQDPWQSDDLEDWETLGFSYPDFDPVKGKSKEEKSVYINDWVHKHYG

As to `C(=N\Nc1nc(C23CC4CC(CC(C4)C2)C3)cs1)/c1ccc(-n2c3ccccc3c3ccccc32)cc1` [K1, (E)-2-(2-(4-(9H-carbazol-9-yl)benzylidene)hydrazinyl)-4-(1-adamantyl)thiazole], on mushroom tyrosinase, the “Inhibitory Mechanism” value is given as “Mixed” and the Vmax was 0.2608 mM/min. Moreover, in series [1], the “T5 (temperature at 5% weight loss)” value was found to be 222 °C and the “T10 (temperature at 10% weight loss)” value was 279 °C.

Consider `N#Cc1ccc(-c2csc(N/N=C/c3ccc(-n4c5ccccc5c5ccccc54)cc3)n2)cc1` [K2, (E)-4-(2-(2-(4-(9H-carbazol-9-yl)benzylidene)hydrazinyl)thiazol-4-yl)benzonitrile], for which, at mushroom tyrosinase, the “Inhibitory Mechanism” value is reported as “Mixed” and the Vmax was determined as 0.4078 mM/min. Besides, in series [1], the “T5 (temperature at 5% weight loss)” value was determined as 231 °C and the “T10 (temperature at 10% weight loss)” value turned out to be 252 °C.

Take `O=[N+]([O-])c1ccc(-c2csc(N/N=C/c3ccc(-n4c5ccccc5c5ccccc54)cc3)n2)cc1` [K3, (E)-2-(2-(4-(9H-carbazol-9-yl)benzylidene)hydrazinyl)-4-(4-nitrophenyl)thiazole]: on mushroom tyrosinase, the “Inhibitory Mechanism” value was “Mixed” and the Vmax was determined as 0.4718 mM/min. For the same molecule, in series [1], the “T5 (temperature at 5% weight loss)” value amounted to 244 °C and the “T10 (temperature at 10% weight loss)” value was 271 °C. The solubility in toluene entry in series [2] is “did not dissolve”.

One may read the Vmax as the top rate of the reaction or transport when substrate is in excess.
